Experimental data taken from patent US11753407B2, “Compounds for treating spinal muscular atrophy” (PTC Therapeutics, Inc., priority 2012, dated 2023).

Key:
[1] = test system: SMN2 minigene mRNA (SMN2-A minigene) in HEK293H cells; assay: SMN2 minigene mRNA splicing RT-qPCR assay in cultured cells; assay type: cell-based, human; settings: Homo sapiens, HEK293-H; concentration increasing full length SMN2 mRNA 1.5-fold relative to vehicle-treated cells; HEK293H cells with SMN2-A minigene, 24 hours, 7-point concentration data; read-out: EC1.5x for production of full length SMN2 mRNA
Experimental: The reverse transcription-quantitative PCR-based (RT-qPCR) assay is used to quantify the level of the full length SMN2 minigene mRNA containing SMN2 exon 7 in a HEK293H cell line stably transfected with said minigene and treated with a test compound.
Protocol. HEK293H cells stably transfected with the SMN2-A minigene construct described above (10,000 cells/well) are seeded in 200 μL of cell culture medium (DMEM plus 10% FBS, with 200 μg/mL hygromycin) in 96-well flat-bottom plates and the plate is immediately swirled to ensure proper dispersal of cells, forming an even monolayer of cells. Cells are allowed to attach for at least 4-6 hours. Test compounds are serially diluted 3.16-fold in 100% DMSO to generate a 7-point concentration curve. A solution of test compound (1 μL, 200× in DMSO) is added to each cell-containing well and the plate is incubated for 24 hours in a cell culture incubator (37° C., 5% CO2, 100% relative humidity). 2 replicates are prepared for each test compound concentration. The cells are then lysed in Cells-To-Ct lysis buffer and the lysate is stored at −80° C.
Primer SMN Forward A (SEQ ID NO. 1) hybridizes to a nucleotide sequence in exon 7 (nucleotide 22 to nucleotide 40), primer SMN Reverse A (SEQ ID NO. 2) hybridizes to a nucleotide sequence in the coding sequence of Firefly luciferase, SMN Probe A (SEQ ID NO. 3) hybridizes to a nucleotide sequence in exon 7 (nucleotide 50 to nucleotide 54) and exon 8 (nucleotide 1 to nucleotide 21). The combination of these three oligonucleotides detects only SMN1 or SMN2 minigenes (RT-qPCR) and will not detect endogenous SMN1 or SMN2 genes.
The SMN forward and reverse primers are used at final concentrations of 0.4 μM. The SMN probe is used at a final concentration of 0.15 μM. The GAPDH primers are used at final concentrations of 0.2 μM and the probe at 0.15 μM.
The SMN2-minigene GAPDH mix (15 μL total volume) is prepared by combining 7.5 μL of 2× RT-PCR buffer, 0.4 μL of 25× RT-PCR enzyme mix, 0.75 μL of 20× GAPDH primer-probe mix, 4.0075 μL of water, 2 μL of 10-fold diluted cell lysate, 0.06 μL of 100 μM SMN forward primer, 0.06 μL of 100 μM SMN reverse primer, and […].
PCR is carried out at the following temperatures for the indicated time: Step 1: 48° C. (15 min); Step 2: 95° C. (10 min); Step 3: 95° C. (15 sec); Step 4: 60° C. (1 min); then repeat Steps 3 and 4 for a total of 40 cycles.
Each reaction mixture contains both SMN2-A minigene and GAPDH primers/probe sets (multiplex design), allowing simultaneous measurement of the levels of two transcripts.
Two SMN spliced products are generated from the SMN2 minigene. The first spliced product containing exon 7, corresponding to full length SMN2 mRNA, is referred to herein using the term “SMN2 minigene FL.” The second spliced product lacking exon 7 is referred to herein using the term “SMN2 minigene Δ7.”
The increase of SMN2 minigene FL mRNA relative to that in cells treated with vehicle control is determined from real-time PCR data using a modified ΔΔCt method (as described in Livak and Schmittgen, Methods, 2001, 25:402-8). The amplification efficiency (E) is calculated from the slope of the amplification curve for SMN2 minigene FL and GAPDH individually. The abundances of SMN2 minigene FL and GAPDH are then calculated as (1+E)^−Ct, where Ct is the threshold value for each amplicon. The abundance of SMN2 minigene FL is normalized to GAPDH abundance. The normalized SMN2 minigene FL abundance from test compound-treated samples is then divided by normalized SMN2 minigene FL abundance from vehicle-treated cells to determine the level of SMN2 FL mRNA relative to vehicle control.
For compounds of Formula (I) or a form thereof disclosed herein, Table 4 provides the […] for production of full length SMN2 mRNA that was obtained from the 7-point concentration data generated for each test compound according to the procedure of Biological Example 2. […]

[2] = test system: Smn protein in SMA patient fibroblast cells (GM03813); assay: Smn protein assay in cultured cells (SMN HTRF); assay type: cell-based, human; settings: SMA patient fibroblast cells, 48 hours; for maximum fold (Fold) increase of Smn protein: 7-point concentration data, fold relative to vehicle control; for EC1.5x for Smn protein expression: 7-point concentration curve, SMN HTRF, concentration producing 1.5 times Smn protein vs DMSO vehicle control
Experimental: The SMN HTRF (homogeneous time resolved fluorescence) assay is used to quantify the level of Smn protein in SMA patient fibroblast cells treated with test compounds.
Protocol. Cells are thawed and cultured in DMEM-10% FBS for 72 hours. Cells are trypsinized, counted and re-suspended to a concentration of 25,000 cells/mL in DMEM-10% FBS. The cell suspension is plated at 5,000 cells per well in a 96 well microtiter plate and incubated for 3 to 5 hours. […] Test compounds are serially diluted 3.16-fold in 100% DMSO to generate a 7-point concentration curve. 1 μL of test compound solution is transferred to cell-containing wells and cells are incubated for 48 hours in a cell culture incubator (37° C., 5% CO2, 100% relative humidity). Triplicate samples are set up for each test compound concentration. After 48 hours, the supernatant is removed from the wells and 25 μL of the RIPA lysis buffer, containing protease inhibitors, is added to the wells and incubated with shaking at room temperature for 1 hour. 25 μL of the diluent is added and then 35 μL of the resulting lysate is transferred to a 384-well plate, where each well contains 5 μL of the antibody solution (1:100 dilution of anti-SMN d2 and anti-SMN kryptate in SMN reconstitution buffer). The plate is centrifuged for 1 minute to bring the solution to the bottom of the wells, then incubated overnight at room temperature. Fluorescence for each well of the plate at 665 nm and 620 nm is measured on an EnVision multilabel plate reader (Perkin-Elmer).
The normalized fluorescence signal is calculated for each sample, Blank and vehicle control well by dividing the signal at 665 nm by the signal at 620 nm. Normalizing the signal accounts for possible fluorescence quenching due to the matrix effect of the lysate. The ΔF value (a measurement of Smn protein abundance as a percent value) for each sample well is calculated by subtracting the normalized average fluorescence for the Blank control wells from the normalized fluorescence for each sample well, then dividing this difference by the normalized average fluorescence for the Blank control wells and multiplying the resulting value by 100. The ΔF value for each sample well represents the Smn protein abundance from test compound-treated samples. The ΔF value for each sample well is divided by the ΔF value for the vehicle control wells to calculate the fold increase in Smn protein abundance relative to the vehicle control.
For compounds of Formula (I) or a form thereof disclosed herein, Table 9 provides the EC1.5× for Smn protein expression that was obtained from the 7-point concentration data generated for each test compound according to the procedure of Biological Example 7. The term “EC1.5× for Smn protein expression” is defined as that concentration of test compound that is effective in producing 1.5 times the amount of Smn protein in an SMA patient fibroblast cell compared to the amount produced from the DMSO vehicle control. An EC1.5× for Smn protein expression between >3 μM and ≤10 μM is indicated by one star (*), an EC1.5× between >1 μM and ≤3 μM is indicated by two stars (**), an EC1.5× between >0.3 μM and ≤1 μM is indicated by three stars (***) and an EC1.5x≤0.3 μM is indicated by four stars (****).
For compounds of Formula (I) or a form thereof disclosed herein, Table 10 provides the maximum fold (Fold) increase of Smn protein that was obtained from the 7-point concentration data generated for each test compound according to the procedure of Biological Example 7. A maximum fold increase of ≤1.2 is indicated by one star (*), a fold increase between >1.2 and ≤1.35 is indicated by two stars (**), a fold increase between >1.35 and ≤1.5 is indicated by three stars (***), a fold increase between >1.5 and ≤1.65 is indicated by four stars (****) and a fold increase >1.65 is indicated by five stars (*****).

| SMILES | EC (1.5-fold increase) [1] [µM] | maximum fold (Fold) increase of Smn protein [2] | EC1.5x for Smn protein expression [2] |
| --- | --- | --- | --- |
| COc1ccc(-c2cc(=O)n3cc(N4CCCNCC4)ccc3n2)cc1OC [Compound 10, 7-(1,4-diazepan-1-yl)-2-(3,4-dimethoxyphenyl)-4H-pyrido[1,2-a]pyrimidin-4-one] | 1 to 3 | ** (a fold increase between >1.2 and ≤1.35 is indicated by two stars (**)) | – |
| COc1ccc(-c2cc(=O)n3cc(N4CCNC(C)(C)C4)ccc3n2)cc1 [Compound 17, 7-(3,3-dimethylpiperazin-1-yl)-2-(4-methoxyphenyl)-4H-pyrido[1,2-a]pyrimidin-4-one] | 1 to 3 | * (A maximum fold increase of ≤1.2 is indicated by one star (*)) | – |
| COc1cccc(-c2cc(=O)n3cc(N4CCCNCC4)ccc3n2)c1 [Compound 27, 7-(1,4-diazepan-1-yl)-2-(3-methoxyphenyl)-4H-pyrido[1,2-a]pyrimidin-4-one] | 3 to 30 | * (A maximum fold increase of ≤1.2 is indicated by one star (*)) | – |
| O=c1cc(-c2cc(F)c(O)c(F)c2)nc2ccc(N3CCNCC3)cn12 [Compound 71, 2-(3,5-difluoro-4-hydroxyphenyl)-7-(piperazin-1-yl)-4H-pyrido[1,2-a]pyrimidin-4-one] | 1 to 3 | **** (a fold increase between >1.5 and ≤1.65 is indicated by four stars (****)) | * (An EC1.5× for Smn protein expression between >3 μM and ≤10 μM is indicated by one star (*)) |
| O=c1cc(-c2cc(F)cc(C(F)(F)F)c2)nc2ccc(N3CCNCC3)cn12 [Compound 76, 2-[3-fluoro-5-(trifluoromethyl)phenyl]-7-(piperazin-1-yl)-4H-pyrido[1,2-a]pyrimidin-4-one] | 0.3 to 1 | ** (a fold increase between >1.2 and ≤1.35 is indicated by two stars (**)) | – |
| COc1ccc(-c2cc(=O)n3cc(N4CCNCC4)ccc3n2)cc1OC(F)F [Compound 99, 2-[3-(difluoromethoxy)-4-methoxyphenyl]-7-(piperazin-1-yl)-4H-pyrido[1,2-a]pyrimidin-4-one] | 0.3 to 1 | **** (a fold increase between >1.5 and ≤1.65 is indicated by four stars (****)) | *** (an EC1.5× between >0.3 μM and ≤1 μM is indicated by three stars (***)) |
| O=c1cc(-c2ccc3nccn3c2)nc2ccc(N3CCNCC3)cn12 [Compound 108, 2-(imidazo[1,2-a]pyridin-6-yl)-7-(piperazin-1-yl)-4H-pyrido[1,2-a]pyrimidin-4-one] | 0.1 to 0.3 | *** (a fold increase between >1.35 and ≤1.5 is indicated by three stars (***)) | – |
| Cc1cn2cc(-c3cc(=O)n4cc(N5CCN(C)CC5)ccc4n3)ccc2n1 [Compound 114, 2-(2-methylimidazo[1,2-a]pyridin-6-yl)-7-(4-methylpiperazin-1-yl)-4H-pyrido[1,2-a]pyrimidin-4-one] | 1 to 3 | *** (a fold increase between >1.35 and ≤1.5 is indicated by three stars (***)) | – |
| Cc1cn2cc(-c3cc(=O)n4cc(N5CCN[C@@H](C)C5)ccc4n3)ccc2n1 [Compound 115, 2-(2-methylimidazo[1,2-a]pyridin-6-yl)-7-[(3S)-3-methylpiperazin-1-yl]-4H-pyrido[1,2-a]pyrimidin-4-one] | < 0.1 | **** (a fold increase between >1.5 and ≤1.65 is indicated by four stars (****)) | **** (an EC1.5x≤0.3 μM is indicated by four stars (****)) |
| Cc1cn2cc(-c3cc(=O)n4cc(N5CCCNCC5)ccc4n3)ccc2n1 [Compound 116, 7-(1,4-diazepan-1-yl)-2-(2-methylimidazo[1,2-a]pyridin-6-yl)-4H-pyrido[1,2-a]pyrimidin-4-one] | 0.1 to 0.3 | *** (a fold increase between >1.35 and ≤1.5 is indicated by three stars (***)) | * (An EC1.5× for Smn protein expression between >3 μM and ≤10 μM is indicated by one star (*)) |
| Cc1cn2nc(-c3cc(=O)n4cc(N5CCNCC5)ccc4n3)cc2c(C)n1 [Compound 120, 2-(4,6-dimethylpyrazolo[1,5-a]pyrazin-2-yl)-7-(piperazin-1-yl)-4H-pyrido[1,2-a]pyrimidin-4-one] | < 0.1 | ***** (a fold increase >1.65 is indicated by five stars (*****)) | **** (an EC1.5x≤0.3 μM is indicated by four stars (****)) |
